Test results as given in US20140142343A1, “Novel Fragrance Compounds” (Givaudan Nederland Services B.V., priority 2006, published 2014).
Converted amounts (≈) assume the structure as drawn.

Experiments:
[1] = test system: Staphylococcus aureus ATCC 6538; test: Minimum Inhibitory Concentration (MIC); assay type: cell-based; conditions: for MIC: ATCC6538, Staphylococcus aureus ATCC 6538, change in absorbance <0.2 A540; for activity against Staphylococcus aureus (in words): summary statement
Protocol: One property that characterises the effectiveness of a compound or composition to inhibit the growth of bacteria, is the minimum inhibitory concentration, or MIC, of the compound or composition. The MIC is defined as the minimum amount of a compound or composition (e.g. in ppm) at which little or no bacterial growth is observed. […] The minimum inhibitory concentration of a compound was determined by the following method. A culture of the test strains of bacteria Staphylococcus aureus ATCC 6538 (American Type Culture Collection, P.O. Box 1549, Manassas, Va. 20108, USA) was incubated for 16-24 hours, in a shaken flask at 37° C. The cultures was then diluted in sterile 0.1% TSB (Oxoid, Basingstoke, UK) to give a concentration of bacteria of approximately 10^6 colony forming units (cfu) per ml. Fragrance compounds were prepared in sterile TSB to give stock solutions with final concentrations of 40,000 ppm. The absorbance at 540 nm (hereinafter referred to for brevity and simplicity as “A540”) was used as a measure of turbidity resulting from bacterial growth. The MIC was taken as the concentration of ingredient required to inhibit growth so that the average change in absorbance during the incubation period was <0.2 A540.

Ant (Lasius niger) = test: Insect repellency against ants, half-treated vinyl tiles; assay type: in vivo
Protocol: (§1) Compound 1 was tested for insect repellency against mosquitoes and ants. In all cases, repellency is calculated with reference to an untreated surface having 0% repellency.
Ant test is completed with a simplified general purpose cleaner formulation: […]
This product is applied to the floor tiles (vinyl) at the rate of 20 g·m^−2.
Ant (Lasius niger) 300 mm square vinyl tiles half treated with 0.9 ml test material and left for 2 hours. Glass arena 250 mm square, 75 mm high and fluon coated, open to air. Arena illuminated from 1.0 m above by four 18 W fluorescent lamps. 50 black ants per arena counted every 5 minutes. Arena turned 180 degrees every 10 minutes. Any ants injured or escaping replaced. Mosquito (Aedes aegyptii) A perspex box approx 18 inch cube, with sleeved circular entry was used as the test cage. The box contained 5 day old, mated honey fed females. The area of arm to be tested was measured. The test material was applied from ethanol solution at a rate of 0.2 mg test material per square centimetre. A similar area of the other arm was used for the control. A pair of disposable gloves was worn on the hands throughout the test. In turn each arm was inserted into the cage for 30 seconds. This was repeated 3 times. The number of mosquitoes landing on the arm was recorded every five seconds. […]

[2] = test system: Mosquito (Aedes aegyptii); test: Insect repellency against mosquitoes, treated arm in cage; assay type: in vivo
Protocol: as §1
Ant (Lasius niger) 300 mm square vinyl tiles half treated with 0.9 ml test material and left for 2 hours. Glass arena 250 mm square, 75 mm high and fluon coated, open to air. Arena illuminated from 1.0 m above by four 18 W fluorescent lamps. 50 black ants per arena counted every 5 minutes. Arena turned 180 degrees every 10 minutes. Any ants injured or escaping replaced. Mosquito (Aedes aegyptii) A perspex box approx 18 inch cube, with sleeved circular entry was used as the test cage. The box contained 5 day old, mated honey fed females. The area of arm to be tested was measured. The test material was applied from ethanol solution at a rate of 0.2 mg test material per square centimetre. A similar area of the other arm was used for the control. A pair of disposable gloves was worn on the hands throughout the test. In turn each arm was inserted into the cage for 30 seconds. This was repeated 3 times. The number of mosquitoes landing on the arm was recorded every five seconds. As penetration of the skin occurs within 5 seconds the arm was flicked at this frequency to dislodge the flies.

SMILES | MIC [1] [mg/L] | activity against Staphylococcus aureus (in words) [1] | repellency against ants (Ant (Lasius niger); over first hour, wrt untreated surface, 1.0% in general purpose cleaner formulation) [%] | repellency properties against ants (in words) (Ant (Lasius niger); summary statement) | repellency against mosquitoes ([2]; after 10 minutes, wrt untreated surface, 0.2 mg test material per square centimetre) [%] | repellency properties against mosquitoes (in words) ([2]; summary statement)
CC(C)C1CCCC(C(C)CC=O)C1 (stereo not shown) [Compound 2, 3-(3-isopropylcyclohexyl)butanal] | 312 (≈ 1590 µM) | excellent activity against Staphylococcus aureus |  |  |  | 
CC(C=O)CC1CCCC(C)C1 (stereo not shown) [Compound 3, 2-methyl-3-(3-methylcyclohexyl)propanal] | 5000 (≈ 29700 µM) |  |  |  |  | 
CC1CCCC(CCC=O)C1 (stereo not shown) [Compound 4, 3-(3-methylcyclohexyl)propanal] | > 5000 |  |  |  |  | 
CC(C)(C)C1CCCC(CCC=O)C1 (stereo not shown) [Compound 1, 3-(3-tert-butylcyclohexyl)propanal] | 312 (≈ 1590 µM) | excellent activity against Staphylococcus aureus | 72 | excellent repellency properties | 100 | excellent repellency properties
